Laboratory results taken from patent US20260131003A1, “Method and kit for treating skin infections” (Koite Health Oy, priority 2020, published 2026).

System: Staphylococcus aureus biofilm
Test: Monospecies S. aureus biofilm model, light exposure after ICG incubation, CFU counting
Type: cell-based
Settings: for reduction in bacterial counts: three-day maturated biofilm
Description: Monospecies S. Aureus biofilm model experiments were performed to study the effect of single, or recurring application of dual-light aPDT or its parts during the biofilm formation process. Flat-bottom Nunclon Delta well plates (Thermo Fisher Scientific Inc, US), were used, and the biofilm experiments were divided into different setups based on maturation age and the therapy given.
Applications of both single- and dual-light therapies were scheduled to mimic the daily use of antibacterial light therapy. The total amount of […] as kept unchanged in different treatment protocols, and the concentration of the ICG photosensitizer (if given) were identical. In the first setting, S. aureus biofilm was incubated for either one day or three days, and a single dose of light with ICG was applied at the end of the growth period. In the second setting, the biofilm was incubated for either three days or six days, and a daily dose of light ICG with was applied during incubation. In each setting, the last treatment was followed by plating onto brain heart infusion (BHI)-agar dishes for colony-forming unit (CFU) counting.
Staphylococcus Aureus bacteria were grown for 18 h in an incubator (NuAire DH autoflow 5500, NuAire inc, US), at +36 degrees C, 5% CO2 in BHI broth (Bio-Rad 3564014, Bio-Rad Laboratories, Inc, US). The resulting bacterial suspension was diluted with a 0.9% NaCl solution until an optical density (OD) of 0.46 was reached. The optical density was measured by a spectrophotometer (Varian Cary 100 Bio UV-VIS, Agilent Technologies, Inc, US), and then with a Den 1 McFarland Densitometer (Biosan, Riga, Latvia).
Biofilms were grown in flat-bottom 96-well plates (Thermo Fisher Scientific Inc, US) by placing 100 μl of 0.46 OD S. aureus suspension in each well, with 100 μl of BHI-broth growth medium. The well plates were then incubated in a growth chamber (36° C., 5% CO^2). The BHI-broth medium was changed daily to supply fresh growth medium and to wash away the debris. The change of the medium in each well was performed by removing 100 μl of the medium and replacing it with a similar amount of fresh BHI broth.
Before the light exposure took place, the growth medium was meticulously removed by pipetting and subsequently replaced with an equal amount of indocyanine green solution (Verdye, Diagnostic Green, GmBH), tittered to a concentration of 250 μg/ml. The indocyanine green was left to incubate at room temperature and in the dark for 10 minutes. After this incubation period, the biofilm was washed with a 0.9% NaCl solution. Then, the 0.9% solution of NaCl was added to each well to reach a total volume of 200 μl.
Light exposure was performed using specific, custom-made LED light sources (Lumichip Oy, Espoo, Finland). The exposure time was calculated from the determined light amount and known irradiances, which had been previously measured with a light energy meter (Thorlabs PM 100D with S121C sensor head, Thorlabs Inc, US) and a spectroradiometer (BTS256, Gigahertz-Optik GmbH, Germany), respectively. After the exposure, the BHI broth was changed and the plates were placed in the incubator, or, if the light exposure was final, the biofilm was scraped for CFU counting, as described below. Excitation lights were applied with two single-wave LED light sources with peak intensities at 810 nm or at 405 nm, and with a dual-wave LED light chip simultaneously producing two separate peak intensities at 405 nm and at 810 nm.
Antibacterial photodynamic therapy light exposure was administered at an 810-nm peak wavelength LED array on top of the well plate. The resulting light irradiance was 100 mW/cm^2, and the provided light energy was 100 J/cm^2. Antibacterial blue light was administered at a 405-nm peak wavelength LED array, with a resulting irradiance of 80 mW/cm^2, and resulting light energy of 100 J/cm^2. […]

CC1(C)C(/C=C/C=C/C=C/C=C2\N(CCCCS(=O)(=O)O)c3ccc4ccccc4c3C2(C)C)=[N+](CCCCS(=O)(=O)[O-])c2ccc3ccccc3c21 [ICG, indocyanine green]
antibacterial effectivity by dual-light relative energy ratio (1/4 NIR (810 nm) to 3/4 aBL (405 nm) compared with 1/1 and 3/4 NIR to 1/4 aBL, largest difference in 6-day daily treated biofilm): most effective | antibacterial efficacy of simultaneous ICG/810-nm aPDT and 405-nm aBL versus single-light aPDT or aBL (S. aureus biofilm, overall conclusion): significantly improved antibacterial efficacy | antibacterial efficiency of dual-light aPDT versus single light (CFU count) (one-day biofilm, single dose, ICG 250 μg/ml, 405 nm + 810 nm simultaneously, total 100 J/cm^2): significantly more efficient than single-light aBL or aPDT | antibacterial effect (CFU count) (one-day biofilm, single light dose, ICG 250 μg/ml, all modalities (single-light aPDT 810 nm, dual-light aPDT)): bactericidal | reduction in bacterial counts (single exposure of aPDT (ICG 250 μg/ml, 810 nm, 100 J/cm^2)): four | reduction in bacterial counts (single exposure of dual-light aPDT (ICG 250 μg/ml, 405 nm + 810 nm)): four
